Experimental data: patent US20190105367A1, “ANTIMICROBIAL 4-OXOQUINOLIZINES” (Emergent Product Development Gaithersburg Inc., priority 2011, published 2019)
≈ marks a conversion by molar mass, not a printed value. Where two headings read alike, the source gives them in different places.

Assays:
[1] = system: S. aureus 101; experiment: MIC, standard panel of Gram-positive and Gram-negative strains (Example 2); type: cell-based; conditions: Staphylococcus aureus
[2] = system: E. faecalis 29212; experiment: as above; type: cell-based, Enterococcus faecalis; conditions: Enterococcus faecalis, 29212; read-out: MIC E. faecalis 29212
[3] = system: E. cloacae 13047; experiment: as above; type: cell-based, Enterobacter cloacae; conditions: Enterobacter cloacae, 13047; read-out: MIC E. cloacae 13047
[4] = system: A. baumanii 19606; experiment: as above; type: cell-based; conditions: Acinetobacter baumannii
[5] = Cytotoxicity (Example 7); type: cell-based; conditions: human, HEPG2 V1 cells
Procedure: The 4-oxoquinolizine compounds of the invention preferably have a low cytotoxicity against human cells. […].
Cytotoxicity was determined for the instant 4-oxoquinolizine compounds which show low cytotoxicity. (see Table 17 following). […]

[6] = system: A. baumannii ATCC 19606; experiment: Preliminary MBC without and with sub-inhibitory polymyxin B (Example 4); type: cell-based, Acinetobacter baumannii; conditions: Acinetobacter baumannii
[7] = system: A. baumannii J2; experiment: as above; type: cell-based, Acinetobacter baumannii; conditions: Acinetobacter baumannii, preliminary MBC
[8] = system: Acinetobacter sp. (H064200250); experiment: as above; type: cell-based; conditions: Acinetobacter, preliminary MBC
Procedure: The plates were incubated for 18-20 hours at 37° C. The MBC was read as the lowest concentration at which colony growth was ca. 90% less than the positive control (i.e. usually where single colonies or no colonies were observed).

[9] = system: A. baumannii A489; experiment: MIC without and with sub-inhibitory polymyxin B (Example 4); type: cell-based, Acinetobacter baumannii; conditions: for MIC without PB/MIC + PB: A. baumannii A489; for MIC: Acinetobacter baumannii
[10] = system: S. aureus 25923; experiment: MIC, standard panel of Gram-positive and Gram-negative strains (Example 2); type: cell-based; conditions: Staphylococcus aureus
[11] = system: S. epidermis 12228; experiment: as above; type: cell-based, Staphylococcus epidermis; conditions: Staphylococcus
[12] = system: S. aureus SMITH; experiment: MIC, panel of quinolone-resistant strains (Example 2); type: cell-based; conditions: Staphylococcus aureus; CIP R; read-out: MIC S. aureus SMITH
[13] = system: S. pneumoniae 49619; experiment: as above; type: cell-based, Streptococcus pneumoniae; conditions: Streptococcus pneumoniae, 49619; LEV S; read-out: MIC S. pneumoniae 49619
[14] = system: B. thailandensis; type: cell-based, Burkholderia thailandensis; conditions: pH 7 vs pH 5
[15] = ATCC19606, A. baumannii ATCC 19606, +0.06 μg/ml PB, 2nd experiment, read-out: MBC
[16] = ATCC19606, read-out: MBC +0.06 μg/ml PB, A. baumannii ATCC 19606, +0.06 μg/ml polymyxin B, 1st experiment
[17] = J2, A. baumannii J2, +[…] PB, 2nd experiment, read-out: MBC
[18] = J2, read-out: MBC +[…] PB, A. baumannii J2, +[…] polymyxin B, 1st experiment
[19] = Acinetobacter spp. H064200250 (OXA51), +[…] PB, 2nd experiment, read-out: MBC
[20] = read-out: MBC +[…] PB, Acinetobacter spp. H064200250, +[…] polymyxin B, 1st experiment
[21] = A489, A. baumannii A489, +[…] PB, 2nd experiment, read-out: MIC
[22] = A489, read-out: MIC +[…] PB, A. baumannii A489, +[…] polymyxin B, 1st experiment

SMILES | MIC [1] [µg/mL] | MIC [2] [µg/mL] | MIC [3] [µg/mL] | MIC [4] [µg/mL] | IC50 [5] [µM] | MBC [6, 15] [µg/mL] | MBC [6, 16] [µg/mL] | MBC [7, 17] [µg/mL] | MBC [7, 18] [µg/mL] | MBC [8, 19] [µg/mL] | MBC [8, 20] [µg/mL] | MIC without PB/MIC + PB ([9]; +[…] PB, 2nd experiment) | MIC without PB/MIC + PB ([9]; ratio, PB […], 1st experiment) | MIC [9, 21] [µg/mL] | MIC [9, 22] [µg/mL] | MIC [10] [µg/mL] | MIC [11] [µg/mL] | MIC [12] [µg/mL] | MIC [13] [µg/mL] | Dilutions improvement shift on B. thailandensis MIC90 (between pH 7 and pH 5) [14]
Cc1c(-c2ccc(N)cc2)ccn2c(=O)c(C(=O)O)cc(C3CC3)c12 [Compound 8, 8-(4-amino-phenyl)-1-cyclopropyl-9-methyl-4-oxo-quinolizine-3-carboxylic acid] | 0.5 (≈ 1.5 µM) | 0.03 (≈ 0.0897 µM) | 0.25 (≈ 0.748 µM) | 0.125 (≈ 0.374 µM) | 90 | ≤ 0.03 | ≤ 0.03 | ≤ 0.03 | 0.125 (≈ 0.374 µM) | 0.125 (≈ 0.374 µM) | 0.5 (≈ 1.5 µM) | ≥256 | ≥64 | ≤ 0.03 | ≤ 0.03 |  |  |  |  | 
Cc1c(-c2ccc(CN)c(F)c2)ccn2c(=O)c(C(=O)O)cc(C3CC3)c12 [Compound 4, 8-(3-fluoro-4-aminomethyl-phenyl)-1-cyclopropyl-9-methyl-4-oxo-quinolizine-3-carboxylic acid] |  | 0.125 (≈ 0.341 µM) | 0.06 (≈ 0.164 µM) | 0.25 (≈ 0.682 µM) | 60 | ≤ 0.03 | 0.06 | 0.06 (≈ 0.164 µM) | 1 (≈ 2.73 µM) | 0.5 (≈ 1.36 µM) | 8 (≈ 21.8 µM) | ≥512 | 8 | ≤ 0.03 | 1 (≈ 2.73 µM) | 0.06 (≈ 0.164 µM) | 0.06 (≈ 0.164 µM) | 0.125 (≈ 0.341 µM) | 0.125 (≈ 0.341 µM) | 
Cc1c(-c2ccc(N)cc2)c(F)cn2c(=O)c(C(=O)O)cc(C3CC3)c12 [Compound 7, 8-(4-amino-phenyl)-1-cyclopropyl-7-fluoro-9-methyl-4-oxo-quinolizine-3-carboxylic acid] |  | 0.06 (≈ 0.17 µM) |  | 0.5 (≈ 1.42 µM) | 150 | ≤ 0.03 | ≤ 0.03 | ≤ 0.03 | ≤ 0.03 | ≤ 0.03 | 0.25 (≈ 0.709 µM) | ≥256 | ≥256 | ≤ 0.03 | ≤ 0.03 |  |  | 0.25 (≈ 0.709 µM) | 0.25 (≈ 0.709 µM) | Yes, 4x
